Results published in paper PMC9046208, “Foldamers reveal and validate therapeutic targets associated with toxic α-synuclein self-assembly” (Nature Communications, 2022).

How the values were obtained:
NL5901 = test: αS-YFP inclusion count in C elegans NL5901; format: in vivo; settings: NL5901, 15 μM SK-129, day 8 of adulthood; untreated ~33
Protocol: The assay was carried out based on a previous protocol[57] with slight modifications. On day one, N2 and NL5901 strains were synchronized through the bleaching process involving egglay and the incubation of the eggs at an ambient temperature (~23 °C) on a solution of 3 mL NGM media in 60 mm culture plates (CytoOne, USA Scientific, Ocala, FL). The plates were seeded with 300 µL OP50 at an O.D. of 0.5 for 30 h. Simultaneously, a solution of 15 µM SK-129 (Stock solution concentration = 10 mM in DMSO) was made in M9 buffer and added to two sterilized 35 mm NGM solid media plates (Fisher Scientific, Pittsburgh, PA). The plates were already containing 2 mL of NGM solid media and 75 µM Fluorodeoxyuridine (FUDR) to prevent offspring in the worms. […] On day five, motility assay was conducted for worms under different conditions in duplicate using a WMicroTracker Arena plate reader (Phylumtech, Argentina) at ~23 °C for 1 h per day over a period of 12 days. […]
The worms from the NL5901 strain were treated in the absence and presence of SK-129 (15 µM SK-129, stock solution concentration = 10 mM in DMSO) as described in the paralysis experiment. […] For each experiment, at least 15 worms were used, and the inclusions were counted manually, and each condition consisted of at least four independent experiments.

[1] = system: HEK cells expressing αS-A53T-YFP; test: Intracellular seed catalyzed aggregation in HEK cells, MTT viability; format: cell-based; settings: 10 µM SK-129 added 8 h after PD seeds, up to four days
Protocol: The HEK cells (200,000 cells/mL) were plated in an µ-slide eight-well plate (300 µL/well) and incubated at 37 °C and 5% CO2 (g), and allowed to adhere to the plate for 24 h in media (DMEM, 10% FBS, 1% pen/strep). […] The HEK cells were incubated with αS fibrils for 8 h followed by the addition of 10 µM SK-129 for 300 µL media in each well (0.3 µL of 10 mM stock solution in DMSO, total DMSO = 0.1% v,v). The eight-well plate was incubated for a total of 24 h. The eight-well plate after 24 h was used for both confocal imaging and for the cytotoxicity measurements using MTT assay (2 wells/condition, 300 µL/well). In each experiment, 2 wells were used for each condition, including control (only media and DMSO), fibrils, and fibrils+SK-129.
The HEK cells in the eight-well plate were treated with 30 µL of 1x PBS buffer containing MTT dye (5 mg/mL in 1x PBS buffer) to each well. The plates were wrapped in aluminum foil and incubated for 3 h. After 3 h, all liquid was aspirated carefully without disturbing the formazan crystals. To each well, 300 µL of DMSO was added to dissolve the crystals. Once dissolved, the DMSO solution was transferred to a clear 96-well plate (100 µL/well). The absorbance was read on a 96-well plate reader at 570 nm. The cytotoxicity assay was conducted up to four days from when the protein conditions were added to the cells. […]

[2] = target: T1, αS seed-catalyzed aggregation (Homo sapiens, UniProt P37840); test: Seed-catalyzed ThT aggregation assay (10% WT αS seeds), WT αS; format: biochemical; settings: equimolar ratio
T1 construct: made in house; host or cells: Escherichia coli BL21(DE3), periplasm
Protocol: Seed-catalyzed αS aggregation assay was performed similarly to a previously described protocol. Briefly, 100 μM monomeric WT αS solution (200 μL, in 1x PBS buffer) was placed into a ThermoMixer (Eppendorf, Hamberg, Germany) and shook for five days at a rate of […] and 37 °C. The solution was sonicated for 10 min and used as αS seeds. The seed-catalyzed aggregation of WT αS/ αS variants was performed by adding αS seeds (10% seeds, αS in monomeric concentration, v/v) into 140 μL of fresh 100 μM WT αS/ αS variants solution and aggregation was started with constant shaking at a rate of […] and 37 °C. The aggregation of proteins was monitored at the indicated times (See the main manuscript) using the above-mentioned method.
The ThT aggregation assay for each protein (WT αS and αS variants) in the presence of SK-129 was carried out the above-mentioned method. SK-129 (from 10 mM stock solution in DMSO) was added at an equimolar ratio (1% DMSO, v/v) to the proteins at the start of the aggregation experiment. The concentration of DMSO was kept constant (1%, v/v) in protein (WT αS and αS variants), control, and protein+molecule solutions. The kinetic profiles of protein aggregation were processed using OriginPro software (Version 9.1). Kinetic curves were fit using a built-in sigmoidal fit in the OriginLab.

`COC(=O)c1cc(OCC(=O)O)c2cccc(NC(=O)c3cc(OC(C)C)c4cccc(NC(=O)c5cc(OCC(=O)O)c6cccc(NC(=O)c7cc(OC(C)C)c8cccc([N+](=O)[O-])c8n7)c6n5)c4n3)c2n1` [SK-129] was tested, and the “number of αS-YFP inclusions” value (NL5901) was 8–9 inclusions/C elegans, the “cell viability of HEK cells” value [1] was “significantly higher upto four days” and the “effect on seed-catalyzed aggregation” value [2] was “wholly suppressed”.
